According to ChEMBL document CHEMBL1201861, “Genomics of Drug Sensitity in Cancer screening data, Wellcome Trust Sanger Institute”:

How the values were obtained:
[1] = test system: IGROV-1; test: cells; type: functional, cell-based; settings: Homo sapiens;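 further: reduction of IGROV-1 cell growth, read out with a viability assay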
Description: SANGER: Inhibition of human IGROV-1 cell growth in a cell viability assay.

[2] = test system: CAL-148; test: cells; type: functional, cell-based; settings: Homo sapiens
Description: SANGER: Inhibition of human CAL-148 cell growth in a cell viability assay.

[3] = test system: HTC-C3; test: cells; type: functional, cell-based; settings: Homo sapiens;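 further: inhibition of cell growth, read out with a cell viability assay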
Description: SANGER: Inhibition of human HTC-C3 cell growth in a cell viability assay.

[4] = test system: HMV-2 cell line; test: cells; type: functional, cell-based; settings: Homo sapiens;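 further: growth inhibition of HMV-II cells, read out with a cell viability assay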
Description: SANGER: Inhibition of human HMV-II cell growth in a cell viability assay.

[5] = test system: EB2; test: cells; type: functional, cell-based; settings: Homo sapiens;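 further: growth inhibition of EB2 cells, read out with a cell viability assay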
Description: SANGER: Inhibition of human EB2 cell growth in a cell viability assay.

[6] = test system: MRK-nu-1; test: cells; type: functional, cell-based; settings: Homo sapiens;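 further: cell viability assay measuring growth suppression of human MRK-nu-1 cells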
Description: SANGER: Inhibition of human MRK-nu-1 cell growth in a cell viability assay.

[7] = test system: 5637; test: cells; type: functional, cell-based; settings: Homo sapiens
Description: SANGER: Inhibition of human 5637 cell growth in a cell viability assay.

[8] = test system: NUGC-3; test: cells; type: functional, cell-based; settings: Homo sapiens;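 further: growth inhibition of human NUGC-3 cells, read out with a cell viability assay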
Description: SANGER: Inhibition of human NUGC-3 cell growth in a cell viability assay.

[9] = test system: SW837; test: cells; type: functional, cell-based; settings: Homo sapiens;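 further: growth inhibition of SW837 cells, determined with a cell viability assay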
Description: SANGER: Inhibition of human SW837 cell growth in a cell viability assay.

[10] = test system: JEG-3; test: cells; type: functional, cell-based; settings: Homo sapiens;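 further: growth inhibition of human JEG-3 cells, read out with a cell viability assay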
Description: SANGER: Inhibition of human JEG-3 cell growth in a cell viability assay.

[11] = test system: BCPAP; test: cells; type: functional, cell-based; settings: Homo sapiens;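 further: growth inhibition of BCPAP cells, read out in a cell viability assay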
Description: SANGER: Inhibition of human BCPAP cell growth in a cell viability assay.

[12] = test system: G-401; test: cells; type: functional, cell-based; settings: Homo sapiens
Description: SANGER: Inhibition of human G-401 cell growth in a cell viability assay.

[13] = test system: MHH-CALL-2; test: cells; type: functional, cell-based; settings: Homo sapiens;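 further: growth inhibition of the cell line, read out in a cell viability assay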
Description: SANGER: Inhibition of human MHH-CALL-2 cell growth in a cell viability assay.

[14] = test system: KYSE-150 cell line; test: cells; type: functional, cell-based; settings: Homo sapiens;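 further: growth inhibition of human KYSE-150 cells, read out with a cell viability assay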
Description: SANGER: Inhibition of human KYSE-150 cell growth in a cell viability assay.

[15] = test system: TE-15; test: cells; type: functional, cell-based; settings: Homo sapiens;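 further: cell viability readout of growth inhibition in TE-15 cells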
Description: SANGER: Inhibition of human TE-15 cell growth in a cell viability assay.

[16] = test system: HOS; test: cells; type: functional, cell-based; settings: Homo sapiens;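 further: growth inhibition of human HOS cells, read out with a cell viability assay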
Description: SANGER: Inhibition of human HOS cell growth in a cell viability assay.

[17] = test system: NCI-H719; test: cells; type: functional, cell-based; settings: Homo sapiens;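 further: growth inhibition of the cultured cell line, read out with a viability assay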
Description: SANGER: Inhibition of human NCI-H719 cell growth in a cell viability assay.

[18] = test system: SKG-IIIa; test: cells; type: functional, cell-based; settings: Homo sapiens;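 further: cell growth inhibition, read out with a cell viability assay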
Description: SANGER: Inhibition of human SKG-IIIa cell growth in a cell viability assay.

[19] = test system: NCI-H1793; test: cells; type: functional, cell-based; settings: Homo sapiens;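 further: cell growth inhibition, read out by a cell viability assay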
Description: SANGER: Inhibition of human NCI-H1793 cell growth in a cell viability assay.

[20] = test system: BHT-101; test: cells; type: functional, cell-based; settings: Homo sapiens
Description: SANGER: Inhibition of human BHT-101 cell growth in a cell viability assay.

[21] = test system: NCI-H520; test: cells; type: functional, cell-based; settings: Homo sapiens;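 further: growth inhibition of NCI-H520 cells, measured by a cell viability assay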
Description: SANGER: Inhibition of human NCI-H520 cell growth in a cell viability assay.

[22] = test system: MDA-MB-453; test: cells; type: functional, cell-based; settings: Homo sapiens
Description: SANGER: Inhibition of human MDA-MB-453 cell growth in a cell viability assay.

[23] = test system: NCI-H522; test: cells; type: functional, cell-based; settings: Homo sapiens;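 further: cell viability assay measuring growth inhibition of human NCI-H522 cells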
Description: SANGER: Inhibition of human NCI-H522 cell growth in a cell viability assay.

[24] = test system: KYSE-180; test: cells; type: functional, cell-based; settings: Homo sapiens;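 further: growth inhibition of KYSE-180 cells, read out with a cell viability assay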
Description: SANGER: Inhibition of human KYSE-180 cell growth in a cell viability assay.

[25] = test system: VM-CUB-1; test: cells; type: functional, cell-based; settings: Homo sapiens;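 further: cell viability assay measuring growth inhibition of the human VM-CUB-1 cell line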
Description: SANGER: Inhibition of human VM-CUB-1 cell growth in a cell viability assay.

[26] = test system: T-24; test: cells; type: functional, cell-based; settings: Homo sapiens;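 further: growth inhibition of T-24 cells, read out with a cell viability assay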
Description: SANGER: Inhibition of human T-24 cell growth in a cell viability assay.

[27] = test system: MONO-MAC-6; test: cells; type: functional, cell-based; settings: Homo sapiens;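 further: cell viability assay measuring growth inhibition of human MONO-MAC-6 cells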
Description: SANGER: Inhibition of human MONO-MAC-6 cell growth in a cell viability assay.

[28] = test system: KP-4; test: cells; type: functional, cell-based; settings: Homo sapiens;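 further: human KP-4 cells, with growth inhibition read out through a cell viability assay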
Description: SANGER: Inhibition of human KP-4 cell growth in a cell viability assay.

[29] = test system: SCC-25; test: cells; type: functional, cell-based; settings: Homo sapiens;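 further: growth inhibition of SCC-25 cells, measured with a cell viability assay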
Description: SANGER: Inhibition of human SCC-25 cell growth in a cell viability assay.

[30] = test system: Detroit 562; test: cells; type: functional, cell-based; settings: Homo sapiens;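 further: growth inhibition of human Detroit 562 cells, read out by a cell viability assay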
Description: SANGER: Inhibition of human Detroit562 cell growth in a cell viability assay.

[31] = test system: MKN-28; test: cells; type: functional, cell-based; settings: Homo sapiens;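 further: cell viability assay read-out, IC50 reflects suppression of growth of human MKN-28 cells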
Description: SANGER: Inhibition of human MKN28 cell growth in a cell viability assay.

[32] = test system: NCCIT; test: SANGER: Inhibition of human NCCIT cell growth in a cell viability assay.; type: functional, cell-based
[33] = test system: NCI-H1417; test: cells; type: functional, cell-based; settings: Homo sapiens;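 further: human NCI-H1417 cells, growth inhibition determined with a cell viability readout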
Description: SANGER: Inhibition of human NCI-H1417 cell growth in a cell viability assay.

[34] = test system: JIYOYE; test: cells; type: functional, cell-based; settings: Homo sapiens
Description: SANGER: Inhibition of human JiyoyeP-2003 cell growth in a cell viability assay.

[35] = test system: NCI-H727; test: cells; type: functional, cell-based; settings: Homo sapiens;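 further: growth inhibition of human NCI-H727 cells, read out with a cell viability assay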
Description: SANGER: Inhibition of human NCI-H727 cell growth in a cell viability assay.

[36] = test system: SAOS-2; test: cells; type: functional, cell-based; settings: Homo sapiens;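 further: growth inhibition of human Saos-2 cells determined by a cell viability assay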
Description: SANGER: Inhibition of human Saos-2 cell growth in a cell viability assay.

[37] = test system: EFM-19; test: cells; type: functional, cell-based; settings: Homo sapiens;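 further: growth inhibition of human EFM-19 cells, measured in a cell viability assay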
Description: SANGER: Inhibition of human EFM-19 cell growth in a cell viability assay.

[38] = test system: AGS; test: cells; type: functional, cell-based; settings: Homo sapiens;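 further: growth inhibition of AGS cells, determined with a cell viability assay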
Description: SANGER: Inhibition of human AGS cell growth in a cell viability assay.

[39] = test system: NCI-H1755; test: cells; type: functional, cell-based; settings: Homo sapiens;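 further: cell viability readout used to measure growth inhibition of NCI-H1755 cells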
Description: SANGER: Inhibition of human NCI-H1755 cell growth in a cell viability assay.

[40] = test system: MHH-ES-1; test: cells; type: functional, cell-based; settings: Homo sapiens
Description: SANGER: Inhibition of human MHH-ES-1 cell growth in a cell viability assay.

[41] = test system: NCI-H2030; test: cells; type: functional, cell-based; settings: Homo sapiens;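 further: growth inhibition of human NCI-H2030 cells, read out by a cell viability assay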
Description: SANGER: Inhibition of human NCI-H2030 cell growth in a cell viability assay.

[42] = test system: SBC-5; test: cells; type: functional, cell-based; settings: Homo sapiens;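 further: cell viability assay read-out, IC50 is the concentration that inhibits growth of the cells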
Description: SANGER: Inhibition of human SBC-5 cell growth in a cell viability assay.

[43] = test system: NCI-H2081; test: cells; type: functional, cell-based; settings: Homo sapiens;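 further: growth inhibition of human NCI-H2081 cells, read out with a cell viability assay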
Description: SANGER: Inhibition of human NCI-H2081 cell growth in a cell viability assay.

[44] = test system: HN; test: cells; type: functional, cell-based; settings: Homo sapiens
Description: SANGER: Inhibition of human HN cell growth in a cell viability assay.

[45] = test system: NCI-H1522; test: cells; type: functional, cell-based; settings: Homo sapiens;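 further: growth inhibition of NCI-H1522 cells, read out with a cell viability assay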
Description: SANGER: Inhibition of human NCI-H1522 cell growth in a cell viability assay.

[46] = test system: IST-SL2; test: cells; type: functional, cell-based; settings: Homo sapiens;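 further: growth inhibition of human IST-SL2 cells, read out by a cell viability assay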
Description: SANGER: Inhibition of human IST-SL2 cell growth in a cell viability assay.

[47] = test system: SW756; test: cells; type: functional, cell-based; settings: Homo sapiens;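 further: growth inhibition of human SW756 cells, read out with a cell viability assay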
Description: SANGER: Inhibition of human SW756 cell growth in a cell viability assay.

[48] = test system: A673; test: cells; type: functional, cell-based; settings: Homo sapiens;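 further: growth inhibition of human A673 cells, read out through a cell viability assay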
Description: SANGER: Inhibition of human A673 cell growth in a cell viability assay.

[49] = test system: MC-CAR; test: cells; type: functional, cell-based; settings: Homo sapiens;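 further: growth inhibition of the human MC-CAR cell line, read out by a cell viability assay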
Description: SANGER: Inhibition of human MC-CAR cell growth in a cell viability assay.

[50] = test system: NCI-H1437; test: cells; type: functional, cell-based; settings: Homo sapiens;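 further: growth inhibition of human NCI-H1437 cells, read out by a cell viability assay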
Description: SANGER: Inhibition of human NCI-H1437 cell growth in a cell viability assay.

[51] = test system: Raji; test: cells; type: functional, cell-based; settings: Homo sapiens;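 further: cell viability assay measuring inhibition of Raji cell growth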
Description: SANGER: Inhibition of human Raji cell growth in a cell viability assay.

[52] = test system: CAL-12T; test: cells; type: functional, cell-based, Homo sapiens; settings: Homo sapiens, CAL-12T;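 further: growth inhibition of human CAL-12T cells, read out with a cell viability assay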
Description: SANGER: Inhibition of human CAL-12T cell growth in a cell viability assay.

[53] = test system: SW1463; test: cells; type: functional, cell-based; settings: Homo sapiens;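 further: growth inhibition of SW1463 cells, determined with a cell viability assay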
Description: SANGER: Inhibition of human SW1463 cell growth in a cell viability assay.

[54] = test system: PC-3; test: cells; type: functional, cell-based; settings: Homo sapiens;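 further: cell viability assay measuring growth inhibition of PC-3 cells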
Description: SANGER: Inhibition of human PC-3 cell growth in a cell viability assay.

[55] = test system: HCC1937; test: cells; type: functional, cell-based; settings: Homo sapiens;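 further: growth inhibition measured with a cell viability read-out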
Description: SANGER: Inhibition of human HCC1937 cell growth in a cell viability assay.

[56] = test system: SR; test: cells; type: functional, cell-based; settings: Homo sapiens
Description: SANGER: Inhibition of human SR cell growth in a cell viability assay.

[57] = test system: FTC-133; test: cells; type: functional, cell-based; settings: Homo sapiens
[58] = test system: ChaGo-K-1; test: cells; type: functional, cell-based; settings: Homo sapiens;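 further: growth inhibition of ChaGo-K-1 cells, read out with a cell viability assay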
Description: SANGER: Inhibition of human ChaGo-K-1 cell growth in a cell viability assay.

[59] = test system: YT; test: cells; type: functional, cell-based; settings: Homo sapiens
Description: SANGER: Inhibition of human YT cell growth in a cell viability assay.

[60] = test system: SW1573; test: cells; type: functional, cell-based; settings: Homo sapiens;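 further: growth inhibition of SW1573 cells, read out with a cell viability assay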
Description: SANGER: Inhibition of human SW1573 cell growth in a cell viability assay.

[61] = test system: GAMG; test: cells; type: functional, cell-based; settings: Homo sapiens
Description: SANGER: Inhibition of human GAMG cell growth in a cell viability assay.

[62] = test system: NCI-H358; test: cells; type: functional, cell-based; settings: Homo sapiens
Description: SANGER: Inhibition of human NCI-H358 cell growth in a cell viability assay.

[63] = test system: NCI-H187; test: cells; type: functional, cell-based; settings: Homo sapiens
Description: SANGER: Inhibition of human NCI-H187 cell growth in a cell viability assay.

[64] = test system: MFE-280; test: cells; type: functional, cell-based; settings: Homo sapiens
Description: SANGER: Inhibition of human MFE-280 cell growth in a cell viability assay.

Measured: IC50

C/C(O)=C(\C#N)C(=O)Nc1cc(Br)ccc1Br
> 16 µM: [1] | [2] | [3] | [4] | [5] | [6] | [7] | [8] | [9] | [10] | [11] | [12] | [13] | [14] | [15] | [16] | [17] | [18] | [19] | [20] | [21] | [22] | [23] | [24] | [25] | [26] | [27] | [28] | [29] | [30] | [31] | [32] | [33] | [34] | [35] | [36] | [37] | [38] | [39] | [40] | [41] | [42] | [43] | [44] | [45] | [46] | [47] | [48] | [49] | [50] | [51] | [52] | [53] | [54] | [55] | [56] | [57] | [58] | [59] | [60] | [61] | [62] | [63] | [64]
